Experimental data taken from the CheMixHub ionic liquid set.

Experiment: xn = mol fraction of the nth substance listed

CS(C)=O + CCC[N+]1(C)CCCC1.O=S(=O)([N-]S(=O)(=O)C(F)(F)F)C(F)(F)F
101 kPa, x2 = 0
Conditions | viscosity [mPa·s]
298.15 K | 2.118
308.15 K | 1.758
318.15 K | 1.489
328.15 K | 1.28
338.15 K | 1.116
348.15 K | 0.983
358.15 K | 0.874

COS(=O)(=O)[O-].Cn1cc[n+](C)c1 + CCO
Conditions | viscosity [mPa·s]
328.15 K, 100 kPa, x2 = 0.945 | 0.96

CCCC[n+]1ccn(C)c1.[Br-] + CCOCCO
viscosity [mPa·s], 100 kPa
Conditions | x1 = 0.1002 | x1 = 0.2001 | x1 = 0.3007 | x1 = 0.3992 | x1 = 0.5001 | x1 = 0.5986 | x1 = 0.7001 | x1 = 0.8005 | x1 = 0.9002 | x1 = 1
298.15 K | 12.5 | 42.5 | 88.9 | 139 | 191 | 253 | 356 | 541 | 880 | 1451
303.15 K | 8.68 | 25.6 | 51.1 | 78.5 | 108 | 142 | 197 | 295 | 480 | 837
308.15 K | 6.44 | 17.4 | 32.8 | 50 | 67 | 87.1 | 117 | 171 | 278 | 506
313.15 K | 5.02 | 12.5 | 23 | 34.3 | 45.3 | 58.1 | 75.6 | 108 | 171 | 330

COS(=O)(=O)[O-].Cn1cc[n+](C)c1 + CCOCCO
viscosity [mPa·s], 101 kPa
Conditions | x1 = 0.0009004 | x1 = 0.002248 | x1 = 0.003592 | x1 = 0.004932 | x1 = 0.006269 | x1 = 0.007602
293.15 K | 2.1 | 2.12 | 2.14 | 2.16 | 2.18 | 2.21
303.15 K | 1.64 | 1.66 | 1.68 | 1.71 | 1.73 | 1.75
313.15 K | 1.27 | 1.29 | 1.32 | 1.34 | 1.37 | 1.39

CCCC[n+]1ccc(C)cc1.O=S(=O)([N-]S(=O)(=O)C(F)(F)F)C(F)(F)F + CCOS(=O)(=O)[O-].CC[n+]1ccn(C)c1
100 kPa
Conditions | viscosity [mPa·s]
293.15 K, x2 = 0.1177 | 86.8
293.15 K, x2 = 0.3341 | 116.8
293.15 K, x2 = 0.558 | 145
303.15 K, x2 = 0.558 | 86.5
303.15 K, x2 = 0.7776 | 89.6
313.15 K, x2 = 0.3341 | 46.2
313.15 K, x2 = 0.6663 | 58.1
313.15 K, x2 = 0.9487 | 53.1
323.15 K, x2 = 0.6663 | 39.8
323.15 K, x2 = 0.7776 | 39.6
333.15 K, x2 = 0.1177 | 18.6
333.15 K, x2 = 0.3341 | 23.1
333.15 K, x2 = 0.558 | 27.4
333.15 K, x2 = 0.6663 | 28.5
343.15 K, x2 = 0.0475 | 13
343.15 K, x2 = 0.1177 | 14
343.15 K, x2 = 0.6663 | 21
343.15 K, x2 = 0.7776 | 21
343.15 K, x2 = 0.9487 | 19.9
353.15 K, x2 = 0.0475 | 10.3
353.15 K, x2 = 0.226 | 12.2

CCCC[N+](CCCC)(CCCC)CCCC.[Cl-] + CC[C@H](C)[C@H](N)C(=O)O
electrical conductivity [S/m], 100 kPa
Conditions | 313.15 K | 323.15 K | 333.15 K | 343.15 K | 353.15 K
x1 = 0.8889 | 0.0522 | 0.0655 | 0.0876 | 0.1 | 0.119
x1 = 0.9 | 0.0263 | 0.045 | 0.0615 | 0.0789 | 0.105
x1 = 0.9091 | 0.0364 | 0.0499 | 0.072 | 0.0843 | 0.111

CCCC[NH3+].O=[N+]([O-])[O-] + CC[NH3+].O=[N+]([O-])[O-]
electrical conductivity [S/m], 101 kPa, frequency 0.00293 MHz
Conditions | 303.15 K | 308.15 K | 323.15 K
x2 = 0.25 | – | 0.88 | 1.38
x2 = 0.75 | 1.68 | – | –

101 kPa
Conditions | viscosity [mPa·s]
303.15 K, x2 = 0.75 | 42.1
308.15 K, x2 = 0.25 | 56.1
323.15 K, x2 = 0.25 | 33.7
333.15 K, x2 = 0.25 | 25.2
338.15 K, x2 = 0.25 | 22
338.15 K, x2 = 0.75 | 15.5
343.15 K, x2 = 0.25 | 19.4
353.15 K, x2 = 0.25 | 15.4
353.15 K, x2 = 0.5 | 13.3

CS(C)=O + CC[NH+](CC)CC.O=P([O-])(O)O
101 kPa, x1 = 1
Conditions | viscosity [mPa·s]
298.15 K | 1.99
303.15 K | 1.8
308.15 K | 1.65

CS(C)=O + CC[n+]1ccn(C)c1.COS(=O)(=O)[O-]
100 kPa, x2 = 0
Conditions | viscosity [mPa·s]
298.15 K | 1.99
303.15 K | 1.8
308.15 K | 1.65
313.15 K | 1.54

CC[n+]1ccn(C)c1.[Cl-] + CC[n+]1ccn(C)c1.F[B-](F)(F)F
Conditions | viscosity [mPa·s]
293 K, 101 kPa, x1 = 0.2627 | 92.4

C[N+]1(CCOCCOCC[N+]2(C)CCCC2)CCCC1.O=S(=O)([N-]S(=O)(=O)C(F)(F)F)C(F)(F)F.O=S(=O)([N-]S(=O)(=O)C(F)(F)F)C(F)(F)F + CC[n+]1ccn(C)c1.N#C[N-]C#N + O=S(=O)([N-]S(=O)(=O)C(F)(F)F)C(F)(F)F.[Li+]
electrical conductivity [S/m], 100 kPa
Conditions | 298 K | 303 K | 313 K | 323 K | 333 K | 343 K
x1 = 0.1484, x2 = 0.7091 | 0.719 | 0.844 | 1.2 | 1.49 | 1.86 | 2.18
x1 = 0.1554, x2 = 0.7427 | 0.972 | 1.17 | 1.56 | 1.97 | 2.42 | 2.85

C[N+]1(CCOCCOCC[N+]2(C)CCCC2)CCCC1.O=S(=O)([N-]S(=O)(=O)C(F)(F)F)C(F)(F)F.O=S(=O)([N-]S(=O)(=O)C(F)(F)F)C(F)(F)F + CC[n+]1ccn(C)c1.O=S(=O)([N-]S(=O)(=O)C(F)(F)F)C(F)(F)F + O=S(=O)([N-]S(=O)(=O)C(F)(F)F)C(F)(F)F.[Li+]
100 kPa, x1 = 0.2689, x2 = 0.5819
Conditions | electrical conductivity [S/m]
298 K | 0.282
303 K | 0.341
313 K | 0.451
323 K | 0.63
333 K | 0.82
343 K | 1.02
